Assay results taken from US20230276804A1, “A PESTICIDALLY ACTIVE MIXTURE COMPRISING PYRAZOLOPYRIDINE ANTHRANILAMIDE COMPOUND, OXIDES OR SALTS THEREOF” (priority 2020, published 2023).

Legend:
Format in all cases: in vivo
Plutella xylostella = assay: Leaf dip method (cabbage leaves) against Plutella xylostella (Example C); conditions: single compound, 72 h
Protocol: The leaf dip method was used, wherein the required quantity of the compound or respective compound combinations were weighed and dissolved in a test solution prepared in tubes. The tubes were put on a vortex at 2000 rpm for 90 min for proper mixing and then the test solutions were diluted with 0.01% Triton-X to the desired test concentration. Cabbage leaves were dipped into the solution for 10 seconds, shade dried for 20 min and then transferred to single cells of bioassay trays. A single second instar larva was released into each cell and the tray was covered with a lid. The bio-assay trays were kept under laboratory conditions at a temperature of 25° C. and relative humidity of 70%. Observations on dead, moribund and live larvae were recorded 72 h after the release. Percent mortality was calculated by combining dead and moribund larvae and comparing the result with the one of the untreated control. The results are shown for compound of formula (I-III) in Table C.

Helicoverpa armigera = assay: Diet incorporation method against Helicoverpa armigera (Example A); conditions: single compound, 96 h
Protocol: The diet incorporation method was used, in which semi-synthetic diet was incorporated into the test solutions consisting either of the single compounds or respective compound combinations, when the temperature was approximately 50° C. in the bio-assay containers, then stirred thoroughly for proper mixing and allowed to cool for 30 min. The solidified diet was cut into equal pieces, and then each piece was transferred into one cell of a bio-assay tray. A single starved third instar larva was released into each of these cells of the bio-assay trays and the tray was covered with a lid. The bio-assay trays were kept under laboratory conditions at a temperature of 25° C. and relative humidity of 70%. Observations on dead, moribund and live larvae were recorded 96 h after the release of the larvae. Percent mortality was calculated by combining dead and moribund larvae and comparing the result to the one of the untreated control. The results are shown for the compound of formula (I-III) in Table A.

Spodoptera litura = assay: Diet incorporation method against Spodoptera litura (Example B); conditions: single compound, 96 h
Protocol: The diet incorporation method was used, in which semi-synthetic diet was incorporated into the test solution consisting either of the single compound or respective compound combinations, when the temperature was approximately 50° C. in the bioassay containers, then stirred thoroughly for proper mixing and allowed to cool for 30 min. The solidified diet was cut into equal pieces, and then each piece was transferred into one cell of the bio-assay trays. A single starved third instar larva was released into each of these cells of the bio-assay trays and the tray was covered with a lid. The bio-assay trays were kept under laboratory conditions at a temperature of 25° C. and relative humidity of 70%. Observations on dead, moribund and live larvae were recorded 96 h after the release. Percent mortality was calculated by combining dead and moribund larvae and comparing the result with the one of the untreated control. The results are shown for the compound of formula (I-III) in Table B.

Erysiphe cichoracearum = assay: Preventive glasshouse test against Erysiphe cichoracearum in cucumber (Example K); conditions: single compound, Conc. 100 ppm
Protocol: The single compounds or the respective compound combinations were dissolved in 2% dimethyl sulfoxide/acetone and then mixed with water containing emulsifier to a calibrated spray volume of 50 mL. The test solutions were poured into spray bottles for further applications.
To test the preventive activity of compounds, healthy young cucumber plants, raised in the greenhouse, were sprayed with the active compound preparation at the stated application rates inside the spray cabinets using hollow cone nozzles. One day after treatment, the plants were inoculated with a conidial suspension containing 2×10^5 Erysiphe cichoracearum inoculum. The inoculated plants were then kept in a greenhouse chamber at a temperature of 22-24° C. and 50-60% relative humidity for disease expression.
A visual assessment of the performance of the compounds and the respective compound combinations was carried out by rating the disease severity (0-100% scale) on treated plants 3, 7, 10 and 15 days after application. Efficacy (% control) of the single compounds or compound combinations was calculated by comparing the disease rating in the treatment with the one of the untreated control. The compounds were also assessed for their plant compatibility by recording symptoms like necrosis, chlorosis and stunting. The results have been described for the compound of formula (I-III) in Table K.

Alternaria solani = assay: Preventive glasshouse test against Alternaria solani in tomato (Example G); conditions: single compound
Protocol: The single compounds or respective compound combinations were dissolved in 2% dimethyl sulfoxide/acetone and then mixed with water containing emulsifier to a calibrated spray volume of 50 mL. The test solutions were poured into spray bottles for further applications.
To test the preventive activity, healthy young tomato plants, raised in the greenhouse, were sprayed with the active compound preparation at the stated application rates inside the spray cabinets using hollow cone nozzles. One day after treatment, the plants were inoculated with a spore suspension containing 0.24×10^6 Alternaria solani inoculum and 2% Malt. The inoculated plants were then kept in a greenhouse chamber at a temperature of 22-24° C. and 90-95% relative humidity for disease expression.
A visual assessment of the performance of the single compounds or compound combinations was carried out by rating the disease severity (0-100% scale) on treated plants 3, 7, 10 and 15 days after application. Efficacy (% control) of the single compounds and mixtures was calculated by comparing the disease rating in the treatment with the one of the untreated control. The compounds were also assessed for their plant compatibility by recording symptoms like necrosis, chlorosis and stunting. The results have been described for the compound of formula (I-III) in Table G.

[1] = Spodoptera litura, 100 ppm, read-out: Observed Efficacy (%)
[2] = Spodoptera litura, read-out: Observed Efficacy (%)
[3] = Helicoverpa armigera, 100 ppm, read-out: Observed Efficacy (%)

For N#Cc1ccc(CC(=NNC(=O)Nc2ccc(OC(F)(F)F)cc2)c2cccc(C(F)(F)F)c2)cc1 (mixture of isomers) [Metaflumizone], which “Observed Efficacy (%)” value (Plutella xylostella; 0.01 ppm) is on record?
Its value is 25%.

What about the “Observed Efficacy (%)” value (Plutella xylostella; 0.1 ppm) of the same compound?
Its value is 0%.

Cc1c(COC(=O)[C@@H]2[C@H](/C=C(\Cl)C(F)(F)F)C2(C)C)cccc1-c1ccccc1 (racemic) [Bifenthrin] was tested. Which pest or weed control at 1 ppm (Helicoverpa armigera; Helicoverpa armigera, 1 ppm, read-out: Observed Efficacy (%)) did it give?
Its pest or weed control at 1 ppm is 0%.

What about the “Observed Efficacy (%)” value (Plutella xylostella; 0.5 ppm) of the same compound?
The value was 12.5%.

What about the “Observed Efficacy (%)” value (Plutella xylostella; 1 ppm) of the same compound?
Its value is 25%.

How did the “Observed Efficacy (%)” value (Plutella xylostella; 0.1 ppm) turn out when C[C@]1(COC(=O)C2CC2)[C@@H]2C[C@H](O)[C@@]3(C)Oc4cc(-c5cccnc5)oc(=O)c4[C@H](O)[C@@H]3[C@@]2(C)CC[C@@H]1OC(=O)C1CC1 [Afidopyropen] was run?
Its value is 0%.

And the “Observed Efficacy (%)” value (Spodoptera litura; 50 ppm)?
Its value is 0%.

And the “Observed Efficacy (%)” value (Spodoptera litura; 100 ppm)?
The value was 0%.

For CN(C(=O)c1ccccc1)c1cccc(C(=O)Nc2c(Br)cc(C(F)(C(F)(F)F)C(F)(F)F)cc2C(F)(F)F)c1F [Broflanilide], which “Observed Efficacy (%)” value (Helicoverpa armigera; 0.05 ppm) is on record?
Its value is 0%.

And the “Observed Efficacy (%)” value (Helicoverpa armigera; 0.1 ppm)?
Its value is 12.5%.

What about the “Observed Efficacy (%)” value (Spodoptera litura; 0.05 ppm) of the same compound?
The value was 0%.

With CN/C(=N\[N+](=O)[O-])NCc1cnc(Cl)s1 [Clothianidin] as the compound, how does the pest or weed control at 10 ppm (Helicoverpa armigera; Helicoverpa armigera, 10 ppm, read-out: Observed Efficacy (%)) read?
Its pest or weed control at 10 ppm is 12.5%.

And the pest or weed control at 20 ppm (Helicoverpa armigera; Helicoverpa armigera, 20 ppm, read-out: Observed Efficacy (%))?
Its pest or weed control at 20 ppm is 25%.

What about the pest or weed control at 20 ppm (Spodoptera litura; Spodoptera litura, 20 ppm, read-out: Observed Efficacy (%)) of the same compound?
Its pest or weed control at 20 ppm is 0%.

With CCN(C(=O)c1cnn(C(C)C(C)C)c1C)c1ccnnc1 (stereo not drawn) [Dimpropyridaz] as the compound, how does the “Observed Efficacy (%)” value (Plutella xylostella; 0.1 ppm) read?
Its value is 12.5%.

And the “Observed Efficacy (%)” value (Spodoptera litura; 100 ppm)?
Its value is 0%.

How did the “Observed Efficacy (%)” value (Plutella xylostella; 0.001 ppm) turn out when N#Cc1nn(-c2c(Cl)cc(C(F)(F)F)cc2Cl)c(N)c1[S+]([O-])C(F)(F)F (stereo not drawn) [Fipronil] was run?
Its value is 0%.

CCc1nc2cc(C)c(Oc3ccc(OC(F)(F)F)cc3)cc2c(OC(=O)OC)c1C [Flometoquin] was tested. Which “Observed Efficacy (%)” value (Plutella xylostella; 0.005 ppm) did it give?
The value was 12.5%.

CON=CNC(=O)c1ccc(C2=NOC(c3cc(Cl)cc(Cl)c3)(C(F)(F)F)C2)cc1C (stereo not drawn) [Fluxametamid] was tested. Which “Observed Efficacy (%)” value (Plutella xylostella; 0.05 ppm) did it give?
The value was 0%.

What about the “Observed Efficacy (%)” value (Plutella xylostella; 0.1 ppm) of the same compound?
The value was 0%.

For O=[N+]([O-])NC1=NCCN1Cc1ccc(Cl)nc1 [Imidacloprid], which pest or weed control at 50 ppm (Helicoverpa armigera; Helicoverpa armigera, 50 ppm, read-out: Observed Efficacy (%)) is on record?
Its pest or weed control at 50 ppm is 0%.

And the “Observed Efficacy (%)” value (Plutella xylostella; 0.1 ppm)?
The value was 0%.

And the pest or weed control at 100 ppm (Spodoptera litura; [1])?
Its pest or weed control at 100 ppm is 0%.

How did the “Observed Efficacy (%)” value (Helicoverpa armigera; 0.1 ppm) turn out when COC(=O)N(C(=O)N1CO[C@@]2(C(=O)OC)Cc3cc(Cl)ccc3C2=N1)c1ccc(OC(F)(F)F)cc1 [Indoxacarb] was run?
Its value is 0%.

And the “Observed Efficacy (%)” value (Spodoptera litura; 0.1 ppm)?
The value was 0%.

With CCN1OCC(NC(=O)c2ccc(C3=NOC(c4cc(Cl)c(F)c(Cl)c4)(C(F)(F)F)C3)cc2C)C1=O (stereo not drawn) [Isocycloseram] as the compound, how does the “Observed Efficacy (%)” value (Plutella xylostella; 0.1 ppm) read?
The value was 87.5%.

And the “Observed Efficacy (%)” value (Spodoptera litura; 10 ppm)?
The value was 12.5%.

With COCC(=O)N(c1c(C)cccc1C)C(C)C(=O)OC (stereo not drawn) [Metalaxyl] as the compound, how does the “Observed Efficacy (%)” value (Erysiphe cichoracearum) read?
The value was 31%.

What about the “Observed Efficacy (%)” value (Alternaria solani; 50 ppm) of the same compound?
Its value is 22%.

And the “Observed Efficacy (%)” value (Alternaria solani; 100 ppm)?
The value was 22%.

And the pest or weed control at 200 ppm (Spodoptera litura; [2])?
Its pest or weed control at 200 ppm is 0%.

What about the pest or weed control at 500 ppm (Spodoptera litura; [2]) of the same compound?
Its pest or weed control at 500 ppm is 0%.

For CCS(=O)(=O)c1cccnc1-c1nc2cc(S(=O)(=O)C(F)(F)F)ccc2o1 [Oxazosulfyl, 2-[3-(ethanesulfonyl)pyridin-2-yl]-5-[trifluoro(methanesulfonyl)]-1,3-benzoxazole], which pest or weed control at 100 ppm (Helicoverpa armigera; [3]) is on record?
The pest or weed control at 100 ppm was 12.5%.

And the “Observed Efficacy (%)” value (Plutella xylostella; 0.1 ppm)?
The value was 0%.

For CC1=NNC(=O)N(/N=C/c2cccnc2)C1 [Pymetrozine], which “Observed Efficacy (%)” value (Plutella xylostella; 0.01 ppm) is on record?
Its value is 0%.

What about the “Observed Efficacy (%)” value (Plutella xylostella; 0.05 ppm) of the same compound?
The value was 0%.

What about the “Observed Efficacy (%)” value (Plutella xylostella; 1 ppm) of the same compound?
Its value is 12.5%.

How did the “Observed Efficacy (%)” value (Plutella xylostella; 0.05 ppm) turn out when CC(COc1ccc(Oc2ccccc2)cc1)Oc1ccccn1 (stereo not drawn) [Pyriproxyfen] was run?
Its value is 12.5%.

What about the “Observed Efficacy (%)” value (Plutella xylostella; 0.1 ppm) of the same compound?
Its value is 25%.

What about the “Observed Efficacy (%)” value (Plutella xylostella; 1 ppm) of the same compound?
The value was 12.5%.

How did the pest or weed control at 100 ppm (Helicoverpa armigera; [3]) turn out when CN1COCN(Cc2cnc(Cl)s2)/C1=N\[N+](=O)[O-] [Thiamethoxam] was run?
The pest or weed control at 100 ppm was 25%.

What about the “Observed Efficacy (%)” value (Plutella xylostella; 1 ppm) of the same compound?
Its value is 12.5%.

What about the pest or weed control at 50 ppm (Spodoptera litura; Spodoptera litura, 50 ppm, read-out: Observed Efficacy (%)) of the same compound?
The pest or weed control at 50 ppm was 0%.

And the pest or weed control at 100 ppm (Spodoptera litura; [1])?
Its pest or weed control at 100 ppm is 0%.

Which results are given for COC(=O)NC(=S)Nc1ccccc1NC(=S)NC(=O)OC [Thiophanate-methyl]?
pest or weed control at 100 ppm (Helicoverpa armigera; [3]): 0%; pest or weed control at 200 ppm (Helicoverpa armigera; Helicoverpa armigera, 200 ppm, read-out: Observed Efficacy (%)): 0%; pest or weed control at 500 ppm (Helicoverpa armigera; Helicoverpa armigera, 500 ppm, read-out: Observed Efficacy (%)): 0%; Observed Efficacy (%) (Alternaria solani; 10 ppm): 36%; Observed Efficacy (%) (Alternaria solani; 50 ppm): 36%; pest or weed control at 100 ppm (Spodoptera litura; [1]): 0%; pest or weed control at 200 ppm (Spodoptera litura; [2]): 0%; pest or weed control at 500 ppm (Spodoptera litura; [2]): 0%

For O=c1c(-c2cccc(C(F)(F)F)c2)c([O-])[n+](Cc2cncnc2)c2ccccn12 [Triflumezopyrim], which “Observed Efficacy (%)” value (Helicoverpa armigera; 50 ppm) is on record?
Its value is 12.5%.

What about the “Observed Efficacy (%)” value (Helicoverpa armigera; 100 ppm) of the same compound?
Its value is 0%.

What about the “Observed Efficacy (%)” value (Spodoptera litura; 50 ppm) of the same compound?
Its value is 25%.

Which results are given for CCN(C(=O)CCSCCC(F)(F)F)c1cn(-c2cccnc2)nc1Cl [Tyclopyrazoflor]?
Observed Efficacy (%) (Plutella xylostella; 0.1 ppm): 0%; Observed Efficacy (%) (Spodoptera litura; 100 ppm): 0%

Which results are given for Abamectin?
Observed Efficacy (%) (Plutella xylostella; 0.001 ppm): 12.5%; Observed Efficacy (%) (Plutella xylostella; 0.005 ppm): 25%

Which results are given for Emamectin benzoate?
Observed Efficacy (%) (Helicoverpa armigera; 0.1 ppm): 12.5%; Observed Efficacy (%) (Spodoptera litura; 0.05 ppm): 12.5%; Observed Efficacy (%) (Spodoptera litura; 0.1 ppm): 25%

Spinetoram was tested. Which “Observed Efficacy (%)” value (Helicoverpa armigera; 0.5 ppm) did it give?
The value was 25%.

And the “Observed Efficacy (%)” value (Plutella xylostella; 0.05 ppm)?
Its value is 62.5%.

Which “Observed Efficacy (%)” value (Helicoverpa armigera; 0.2 ppm) does the source give for Spinosad here?
The value was 12.5%.

And the “Observed Efficacy (%)” value (Spodoptera litura; 0.2 ppm)?
Its value is 0%.
